Results reported in patent US7524840B2, “7,8-disubstituted pyrazolobenzodiazepines” (Hoffmann-La Roche Inc., priority 2004, dated 2009).
Values belong to the molecule of their own block, whether it stands above or below them.

What was measured:
KDR = target: T1, KDR (Homo sapiens, UniProt P35968); test: KDR kinase HTRF assay; assay type: biochemical; conditions: 1 nM activated KDR, 0.3 mM ATP, 37° C. for 30 minutes; read-out: Inhibition of KDR IC50
T1 construct: EEE tag
Procedure: (§1) To determine inhibition of KDR and FGFR, kinase assays were conducted using an HTRF (Homogeneous Time Resolved Fluorescence) assay. This assay is described in A. J. Kolb et. al., Drug Discovery Today, 1998, 3(7), p 333.
Prior to kinase reaction, recombinant EEE-tagged KDR was activated in the presence of activation buffer (50 mM HEPES, pH 7.4, 1 mM DTT, 10% glycerol, 150 mM NaCl, 0.1 mM EDTA, 26 mM MgCl2, and 4 mM ATP). The enzyme was incubated at 4° C. for 1 hour.
Kinase activity assays were performed in 96-well polypropylene plates (Falcon) with a total volume of 90 μL in each well. Each well contained 1 μM KDR substrate (Biotin-[…]), 1 nM activated KDR, and a test compound with one of 8 assay concentrations ranging from […] to […] (1:5 serial dilution). […] The reaction was incubated at 37° C. for 30 minutes. To stop the KDR reaction, 72 μL of reaction mixture was transferred into a STOP plate containing 18 μL of revelation buffer (20 mM EDTA, 50 mM HEPES, pH 7.4, 0.02% BSA, 10 nM Eu-labelled anti-pY antibody (final conc. 2 nM), and 100 nM streptavidin (final conc. 20 nM)). After mixing, 35 μL of solution was transferred into duplicate wells of a 384-well black plate (Costar), and read at 615/665 nm on a Wallac Victor 5 reader.
(§2) Compound IC50 values were determined from duplicate sets of data, and calculated by using Excel and fitting data to equation Y=[(a−b)/{1+(X/c)^d]+b, where a and b are enzyme activity in the presence of no test inhibitor compound and an infinite amount of inhibitor test compound, respectively, c is the IC50 and d is the hill constant of the compound response. The IC50 value is the concentration of test compound that reduces by 50% the enzyme activity under the test conditions described.

HCT-116 = HCT-116 (colon) cell-based MTT proliferation assay; conditions: Homo sapiens, HCT-116, 96 h, 4 days post addition of test compound, read-out: Antiproliferative Activity HCT 116 (colon) Assay IC50
Procedure: The estrogen receptor negative epithelial breast carcinoma line (MDA-MB-435) was purchased from American Type Cell Culture Collection (ATCC; Rockville, Md.) and was grown in the medium recommended by ATCC. For analysis of the effect of the test compounds on growth of these cells, the cells were plated at 2000 cells per well in a 96-well tissue culture plate, and were incubated overnight at 37° C. with 5% CO2. The next day, the test compounds were dissolved in 100% dimethyl sulfoxide (DMSO) to yield a 10 mM stock solution. Each compound was diluted with sterile medium to 1 mM in a sufficient quantity to yield a final concentration of 120 μM. The compounds were then serially diluted in medium with 1.2% DMSO. One-fourth final volume of the diluted compounds was transferred to 96 well plates. Test compounds were assayed in duplicate. DMSO was added to a row of “control cells” such that the final concentration of DMSO in each well was 0.3%. Wells to which no cells were added served as the “blank.” Wells to which no inhibitor was added served as “no inhibitor control”. The plates were returned to the incubator, and 5 days post addition of test compound, were analyzed as described below.
3-(4,5-Dimethylthiazole-2-yl)-2,5-diphenyl-2H-tetrazolium bromide (thiazolyl blue; MTT) was added to each well to yield a final concentration of 1 mg/mL. The plates were then incubated at 37° C. for 3 hours. The plates were centrifuged at 1000 rpm for 5 minutes prior to aspiration of the MTT-containing medium. The MTT-containing medium was then removed and 100 μL 100% ethanol was added to each well to dissolve the resulting formazan metabolite. To ensure complete dissolution, plates were shaken for 15 minutes at room temperature. Absorbencies were read in a microtiter plate reader (Molecular Dynamics) at a wavelength of 570 nm with a 650 nm reference. Percent inhibition was calculated by subtracting the absorbance of the blank (no cell) wells from all wells, then subtracting the division of the average absorbance of each test duplicate by the average of the controls from 1.00. Inhibitory concentrations (IC50) were determined from the linear regression of a plot of the logarithm of the concentration versus the percent inhibition.
The colon adenocarcinoma line SW480 and the colon carcinoma line HCT-116 also were obtained from the ATCC and were tested according to the same protocol provided above for MDA-MB-435 cell based assay with the following modifications. Cell line SW480 was plated at 1000 cells per well and analyzed at 6 days post addition of the test compound. Cell line HCT-116 was plated at 1000 cells per well and analyzed at 4 days post addition of test compound.

Cyclin E/CDK2 = target: T2, Cyclin E/CDK2 (Homo sapiens, UniProt P24941); test: CDK2 Flash Plate Assay (Rb phosphorylation, 33P-ATP); assay type: biochemical
T2 construct: made in house; host or cells: insect cells
Procedure: To determine inhibition of CDK2 activity, purified recombinant retinoblastoma (Rb) protein was coated on 96 well FlashPlates (New England Nuclear, Boston, Mass.). […] Recombinant active human Cyclin E/CDK2 complexes were partially purified from extracts of insect cells. […] Plates were incubated for 25 minutes at room temperature with shaking, then washed and counted in the Topcount scintillation counter (Packard Instrument Co., Downers Grove, Ill.). Dilutions of test compounds were tested in duplicate in each assay. The percent inhibition of Rb phosphorylation, which is a measure of the inhibition of CDK2 activity, was determined according to the following formula:
[formula] where “test compound” refers to the average counts per minute of the test duplicates, “nonspecific” refers to the average counts per minute when no Cyclin E/CDK2 was added, and “total” refers to the average counts per minute when no compound was added.

FGFR = target: T3, FGFR; test: FGFR kinase HTRF assay; assay type: biochemical; conditions: 1.5 nM activated FGFR, 10 μM ATP; read-out: Inhibition of FGFR IC50
T3 construct: fused on or other part: GST tag
Procedure: as §1
FGFR activity assays were carried out as described above for the KDR activity assay with the following differences. GST-tagged FGFR enzyme was activated at room temperature for 1 hour in the following activation buffer: 100 mM HEPES, pH 7.4, 50 mM NaCl, 20 mM MgCl2, and 4 mM ATP. […] The rest of the assay was performed in the same manner as KDR assay.
as §2

FGF-stimulated HUVEC = FGF-stimulated HUVEC proliferation assay (BrdU); assay type: cell-based; conditions: Homo sapiens, BrdU labeling, FGF 5 ng per mL, 24 hour exposure, read-out: Antiproliferative Activity FGF-stimulated HUVEC Assay IC50
Procedure: (§3) The antiproliferative activity of test compounds of this invention in cell-based assays was evaluated by BrdU assay using the BrdU kit (Roche Biochemicals 1-647-229). Human umbilical vein endothelial cells (HUVEC, Clonetics CC-2519) were cultured in EGM-2 (Clonetics CC-3162) medium and seeded at 10000 cells per well in a volume of 200 μL of EGM-2 (Clonetics CC-3162) media in a 96-well flat bottom plates (Costar 3595) overnight. After 24 hours of growth at 37° C. with 5% CO2, the incubation media was removed slowly by aspiration, and the content of each well was washed with 300 μL pre-warmed EBM-2 (Clonetics CC-3156) containing 50 μg per mL of gentamycin and 50 ng per mL of amphotercin-B (Clonetics CC-4083). Subsequently, the remaining media was again aspirated and replaced with 160 μL per well of serum starvation media (EBM-2 supplemented with 1% heat inactivated FBS (Clonetics CC-4102), 50 μg per mL gentamycin and 50 ng per mL of amphotercin-B (Clonetics CC-4083), 10 units per mL of Wyeth-Ayerst heparin (NDC0641-0391-25), and 2 mM L-glutamine (GIBCO 25030-081). After serum starving the cells for 24 hours, 20 μL of test compound at 10× test concentration in serum starvation medium with 2.5% DMSO was added to the appropriate wells. The control wells contained 20 μL of serum starvation medium with 2.5% DMSO. Plates were returned to the incubator for 2 hours. After pre-incubating the cells with the test compounds for 2 hours, 20 μL of growth factors at 10X assay concentration diluted in serum starvation media, FGF at 50 ng per mL, or VEGF (R&D systems 293-VE) at 200 ng per mL were added. The final concentration of FGF in the assay was 5 ng per mL and the final concentration of VEGF in the assays was 20 ng per mL. The growth factor free control wells had 20 μL per well of serum starvation media with the same amount of BSA as the wells with growth factors. The plates were returned to the incubator for an additional 22 hours.
(§4) After 24 hour exposure to the test compounds, the cells were labeled with BrdU (Roche Biochemicals 1-647-229), by adding 20 μL per well of BrdU labeling reagent that has been diluted (1:100) in serum starvation medium. The plates were then returned to the incubator for 4 hours. The labeling medium was removed by draining the medium onto paper towels. […] The plates were read at 450 nm with reference wavelength of 650 nm. The percent inhibition for each test compound was calculated by subtracting the absorbency of the blank (no cells) wells from all wells, then subtracting the division of the average absorbency of each test duplicate by the average of the controls from 1. […] The IC50 is determined from the linear regression of a plot of the logarithm of the concentration versus percent inhibition.

VEGF-stimulated HUVEC = VEGF-stimulated HUVEC proliferation assay (BrdU); assay type: cell-based; conditions: Homo sapiens, BrdU labeling, VEGF 20 ng per mL, 24 hour exposure, read-out: Antiproliferative Activity VEGF-stimulated HUVEC Assay IC50
Procedure: as §3, §4

T1 sequence (P35968 20-1356, species assumed): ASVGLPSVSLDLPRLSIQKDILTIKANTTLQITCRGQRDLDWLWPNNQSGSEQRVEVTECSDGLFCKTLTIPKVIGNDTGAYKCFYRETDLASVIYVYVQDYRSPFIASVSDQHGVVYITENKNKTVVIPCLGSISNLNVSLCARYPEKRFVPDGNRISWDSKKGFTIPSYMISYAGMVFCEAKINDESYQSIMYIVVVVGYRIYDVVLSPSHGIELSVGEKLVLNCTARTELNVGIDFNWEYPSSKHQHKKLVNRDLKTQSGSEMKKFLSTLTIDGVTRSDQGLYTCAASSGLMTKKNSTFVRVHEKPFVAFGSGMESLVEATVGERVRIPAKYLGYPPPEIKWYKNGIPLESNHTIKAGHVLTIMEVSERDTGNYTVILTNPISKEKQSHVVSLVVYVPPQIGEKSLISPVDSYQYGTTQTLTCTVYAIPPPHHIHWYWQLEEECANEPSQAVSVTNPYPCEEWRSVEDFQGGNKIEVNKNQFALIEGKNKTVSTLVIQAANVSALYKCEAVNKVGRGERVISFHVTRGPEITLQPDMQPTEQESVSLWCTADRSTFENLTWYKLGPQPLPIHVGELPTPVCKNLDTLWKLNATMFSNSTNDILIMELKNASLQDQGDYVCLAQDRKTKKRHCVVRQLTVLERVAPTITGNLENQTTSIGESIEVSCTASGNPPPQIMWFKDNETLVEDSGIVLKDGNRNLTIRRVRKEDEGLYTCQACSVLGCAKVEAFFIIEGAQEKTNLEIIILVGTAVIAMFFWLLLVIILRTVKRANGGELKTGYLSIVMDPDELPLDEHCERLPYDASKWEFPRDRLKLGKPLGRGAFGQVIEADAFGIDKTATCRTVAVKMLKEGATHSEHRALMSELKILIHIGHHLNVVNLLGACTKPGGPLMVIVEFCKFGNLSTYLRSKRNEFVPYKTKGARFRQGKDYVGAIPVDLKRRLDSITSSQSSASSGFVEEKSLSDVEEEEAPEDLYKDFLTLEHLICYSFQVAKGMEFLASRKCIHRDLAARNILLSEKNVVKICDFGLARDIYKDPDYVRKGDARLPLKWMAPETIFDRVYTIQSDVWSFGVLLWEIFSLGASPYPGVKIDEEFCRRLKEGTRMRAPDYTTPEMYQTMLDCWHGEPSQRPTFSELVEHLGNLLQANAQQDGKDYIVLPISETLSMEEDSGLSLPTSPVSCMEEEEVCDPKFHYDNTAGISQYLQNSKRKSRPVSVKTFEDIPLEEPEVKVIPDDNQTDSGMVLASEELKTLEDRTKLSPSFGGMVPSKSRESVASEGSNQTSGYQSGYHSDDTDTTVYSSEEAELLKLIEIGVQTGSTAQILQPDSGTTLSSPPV

SMILES: COCCOc1cc2c(cc1OC)Nc1n[nH]c(C)c1N=C2c1ccccc1Cl [IVkk, 5-(2-chlorophenyl)-1,2-dihydro-8-methoxy-7-methoxyethoxy-3-methyl-pyrazolo[3,4-b][1,4]benzodiazepine]
- IC50 (KDR): 24 nM
- IC50 (HCT-116): 509 nM

SMILES: COCCOc1cc2c(cc1F)C(c1ccccc1Cl)=Nc1c(n[nH]c1C)N2 [IVf, 5-(2-chlorophenyl)-1,2-dihydro-7-fluoro-8-methoxyethoxy-3-methyl-pyrazolo[3,4-b][1,4]benzodiazepine]
- IC50 (Cyclin E/CDK2): 395 nM
- IC50 (HCT-116): 498 nM

SMILES: Cc1[nH]nc2c1N=C(c1ccccc1Cl)c1cc(C#N)c(OCCCN3CCOCC3)cc1N2 [IVk, 5-(2-chlorophenyl)-7-cyano-1,2-dihydro-8-(3-(4-morpholinyl)propoxy)-3-methyl-pyrazolo[3,4-b][1,4]benzodiazepine]
- IC50 (FGFR): 33 nM

SMILES: COc1cc2c(cc1Cl)Nc1n[nH]c(C)c1N=C2c1ccccc1Cl [IVy, 8-chloro-5-(2-chlorophenyl)-1,2-dihydro-7-methoxy-3-methyl-pyrazolo[3,4-b][1,4]benzodiazepine]
- IC50 (VEGF-stimulated HUVEC): 174 nM

SMILES: Cc1[nH]nc2c1N=C(c1ccccc1Cl)c1cc(F)c(OC(C)C)cc1N2 [IVh, 5-(2-chlorophenyl)-1,2-dihydro-7-fluoro-8-(1-methylethoxy)-3-methyl-pyrazolo[3,4-b][1,4]benzodiazepine]
- IC50 (Cyclin E/CDK2): 247 nM

SMILES: Cc1cc2c(cc1C)C(c1ccccc1Cl)=Nc1c(n[nH]c1C)N2 [IVw, 5-(2-chlorophenyl)-1,2-dihydro-3,7,8-trimethyl-pyrazolo[3,4-b][1,4]benzodiazepine]
- IC50 (FGFR): 38 nM
- IC50 (FGF-stimulated HUVEC): 36 nM
- IC50 (VEGF-stimulated HUVEC): 22 nM

SMILES: Cc1[nH]nc2c1N=C(c1ccccc1Cl)c1cc(F)c(OCCCN3CCOCC3)cc1N2 [IVi, 5-(2-chlorophenyl)-1,2-dihydro-7-fluoro-8-(3-(4-morpholinyl)propoxy)-3-methyl-pyrazolo[3,4-b][1,4]benzodiazepine]
- IC50 (KDR): 31 nM

SMILES: COc1cc2c(cc1C)C(c1ccccc1Cl)=Nc1c(n[nH]c1C)N2 [IVz, 5-(2-chlorophenyl)-1,2-dihydro-3,7-dimethyl-8-methoxy-pyrazolo[3,4-b][1,4]benzodiazepine]
- IC50 (VEGF-stimulated HUVEC): 12 nM

Second part, led by results:

- melting point: 288 to 290 °C
SMILES: COc1cc2c(cc1C#N)C(c1ccccc1Cl)=Nc1c[nH]nc1N2

- IC50 (FGFR): 32 nM
- IC50 (KDR): 22 nM
SMILES: COc1cc2c(cc1C(N)=O)C(c1ccccc1Cl)=Nc1c(n[nH]c1C)N2 [IVc]
- IC50 (FGF-stimulated HUVEC): < 1 nM

- melting point: 275 to 276 °C
SMILES: COc1cc2c(cc1C)C(c1ccccc1Cl)=Nc1c[nH]nc1N2

- melting point: 210 to 211 °C
SMILES: COc1cc2c(cc1Br)C(c1ccccc1Cl)=Nc1c(n[nH]c1C)N2

- melting point: 242 to 243 °C
SMILES: COc1cc2c(cc1F)C(c1ccccc1Cl)=Nc1c[nH]nc1N2

- IC50 (HCT-116): 197 nM
SMILES: COCCOc1cc2c(cc1OC)C(c1ccccc1Cl)=Nc1c(n[nH]c1C)N2 [IVgg, 5-(2-chlorophenyl)-1,2-dihydro-7-methoxy-8-methoxyethoxy-3-methyl-pyrazolo[3,4-b][1,4]benzodiazepine]
